Results reported in the NIST ThermoML archive (doi:10.1016/j.jct.2008.10.007).

How the values were obtained:
[1] = excess molar enthalpy (molar enthalpy of mixing); xn = mol fraction of the nth substance listed; conditions: 298.15 K, 101 kPa, Liquid, Calvet calorimetry
[2] = xn = mol fraction of the nth substance listed; conditions: 298.15 K, 101 kPa, Liquid, Vibrating tube method

CCCOC=O [propyl methanoate] + ClCCCCCl
Conditions	excess molar enthalpy [kcal/mol]	mass density [kg/m3]
[1], x1 = 0.0692	0.00932	–
[1], x1 = 0.1586	0.0155	–
[1], x1 = 0.2416	0.0191	–
[1], x1 = 0.3365	0.0184	–
[1], x1 = 0.4234	0.0148	–
[1], x1 = 0.5005	0.01	–
[1], x1 = 0.5667	0.00406	–
[1], x1 = 0.6288	-0.00382	–
[1], x1 = 0.6884	-0.00837	–
[1], x1 = 0.7528	-0.00908	–
[1], x1 = 0.817	-0.00908	–
[1], x1 = 0.8815	-0.00669	–
[1], x1 = 0.9414	-0.00311	–
[2], x1 = 0.0699	–	1119.28
[2], x1 = 0.1344	–	1105.73
[2], x1 = 0.2012	–	1091.45
[2], x1 = 0.3873	–	1050.4
[2], x1 = 0.4476	–	1036.71
[2], x1 = 0.5676	–	1008.76
[2], x1 = 0.6231	–	995.55
[2], x1 = 0.6814	–	981.44
[2], x1 = 0.7384	–	967.39
[2], x1 = 0.7933	–	953.67
[2], x1 = 0.8452	–	940.47
[2], x1 = 0.8982	–	926.78
[2], x1 = 0.9521	–	912.65
[2], x1 = 1	–	899.81

CCCOC=O [propyl methanoate] + ClCCCCl
Conditions	excess molar enthalpy [kcal/mol]	mass density [kg/m3]
[1], x1 = 0.065	-0.00359	–
[1], x1 = 0.1452	-0.00741	–
[1], x1 = 0.2308	-0.0129	–
[1], x1 = 0.3182	-0.0189	–
[1], x1 = 0.3939	-0.0237	–
[1], x1 = 0.4578	-0.0251	–
[1], x1 = 0.5145	-0.0272	–
[1], x1 = 0.5379	-0.027	–
[1], x1 = 0.5862	-0.0268	–
[1], x1 = 0.6669	-0.0246	–
[1], x1 = 0.7509	-0.021	–
[1], x1 = 0.8484	-0.0148	–
[1], x1 = 0.9347	-0.00765	–
[2], x1 = 0.0604	–	1161.58
[2], x1 = 0.1163	–	1145.6
[2], x1 = 0.1772	–	1128.25
[2], x1 = 0.2336	–	1112.22
[2], x1 = 0.2937	–	1095.19
[2], x1 = 0.3531	–	1078.45
[2], x1 = 0.4676	–	1046.35
[2], x1 = 0.5255	–	1030.24
[2], x1 = 0.5854	–	1013.57
[2], x1 = 0.6437	–	997.42
[2], x1 = 0.7051	–	980.49
[2], x1 = 0.7636	–	964.45
[2], x1 = 0.8238	–	947.98
[2], x1 = 0.8823	–	932.02
[2], x1 = 1	–	899.81
